# Test results taken from patent publication US10874670B2, “Substituted fused heteroaromatic compounds as kinase inhibitors and the use thereof” (IMPACT THERAPEUTICS, INC., priority 2017, dated 2020).
# Legend:
# [1] = system: human colon cancer cell SW620; test: MTT assay, growth of SW620 cells, compounds combined with CPT-11; assay type: cell-based; conditions: Homo sapiens, SW-620, 120 h; combined with CPT-11 (205 nM medium), 5 days, MTT
# How it was run: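 SW620 cells in RPMI 1640/10% FBS were exposed to 8-point compound dilutions (top 10 or 1 μM, 1% DMSO final) plus CPT-11 (205 nM in added medium) for 5 days at 37 °C. Viability by MTT (0.5 mg/mL, 4 h) absorbance; IC50 from sigmoidal fit.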
# ATM enzyme (human) = ATM enzyme (human) (Homo sapiens, UniProt Q13315); test: ATM kinase assay (HTRF, GST-cMyc-p53 substrate); assay type: biochemical; conditions: 0.5 h, read-out: Inh (%) of ATM kinase; for inhibition at 0.01 µM: C 0.01 μm (final concentration of compound); for inhibition at 0.1 µM: C 0.1 μm (final concentration of compound); for inhibition at 1 µM: C 1 μm (final concentration of compound)
# How it was run: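 Reaction with GST-cMyc-p53 substrate started with Mg/ATP, run 30 minutes at room temperature, then stopped with EDTA. Phospho-p53 (Ser15) detected by HTRF with Eu-labelled anti-phospho antibody and d2 anti-GST, signal as 10000×(Em665/Em620). Duplicates; IC50 from a curve fit with slope factor.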
# [2] = system: human breast cancer cell MDA-MB-468; test: MTT assay, growth of MDA-MB-468 cells; assay type: cell-based; conditions: Homo sapiens, MDA-MB-468, 168 h; 7 days, MTT
# How it was run: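 MDA-MB-468 cells in RPMI 1640 with 10% FBS were exposed to 8-point compound dilutions (final DMSO 1%) for 7 days at 37 °C, with drug-containing medium renewed on day 4. Viability was read by MTT (0.5 mg/mL, 4 h) absorbance at 552/630/690 nm. IC50 came from a sigmoidal dose-response fit.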
# Sequence of ATM enzyme (human) (Q13315 whole entry): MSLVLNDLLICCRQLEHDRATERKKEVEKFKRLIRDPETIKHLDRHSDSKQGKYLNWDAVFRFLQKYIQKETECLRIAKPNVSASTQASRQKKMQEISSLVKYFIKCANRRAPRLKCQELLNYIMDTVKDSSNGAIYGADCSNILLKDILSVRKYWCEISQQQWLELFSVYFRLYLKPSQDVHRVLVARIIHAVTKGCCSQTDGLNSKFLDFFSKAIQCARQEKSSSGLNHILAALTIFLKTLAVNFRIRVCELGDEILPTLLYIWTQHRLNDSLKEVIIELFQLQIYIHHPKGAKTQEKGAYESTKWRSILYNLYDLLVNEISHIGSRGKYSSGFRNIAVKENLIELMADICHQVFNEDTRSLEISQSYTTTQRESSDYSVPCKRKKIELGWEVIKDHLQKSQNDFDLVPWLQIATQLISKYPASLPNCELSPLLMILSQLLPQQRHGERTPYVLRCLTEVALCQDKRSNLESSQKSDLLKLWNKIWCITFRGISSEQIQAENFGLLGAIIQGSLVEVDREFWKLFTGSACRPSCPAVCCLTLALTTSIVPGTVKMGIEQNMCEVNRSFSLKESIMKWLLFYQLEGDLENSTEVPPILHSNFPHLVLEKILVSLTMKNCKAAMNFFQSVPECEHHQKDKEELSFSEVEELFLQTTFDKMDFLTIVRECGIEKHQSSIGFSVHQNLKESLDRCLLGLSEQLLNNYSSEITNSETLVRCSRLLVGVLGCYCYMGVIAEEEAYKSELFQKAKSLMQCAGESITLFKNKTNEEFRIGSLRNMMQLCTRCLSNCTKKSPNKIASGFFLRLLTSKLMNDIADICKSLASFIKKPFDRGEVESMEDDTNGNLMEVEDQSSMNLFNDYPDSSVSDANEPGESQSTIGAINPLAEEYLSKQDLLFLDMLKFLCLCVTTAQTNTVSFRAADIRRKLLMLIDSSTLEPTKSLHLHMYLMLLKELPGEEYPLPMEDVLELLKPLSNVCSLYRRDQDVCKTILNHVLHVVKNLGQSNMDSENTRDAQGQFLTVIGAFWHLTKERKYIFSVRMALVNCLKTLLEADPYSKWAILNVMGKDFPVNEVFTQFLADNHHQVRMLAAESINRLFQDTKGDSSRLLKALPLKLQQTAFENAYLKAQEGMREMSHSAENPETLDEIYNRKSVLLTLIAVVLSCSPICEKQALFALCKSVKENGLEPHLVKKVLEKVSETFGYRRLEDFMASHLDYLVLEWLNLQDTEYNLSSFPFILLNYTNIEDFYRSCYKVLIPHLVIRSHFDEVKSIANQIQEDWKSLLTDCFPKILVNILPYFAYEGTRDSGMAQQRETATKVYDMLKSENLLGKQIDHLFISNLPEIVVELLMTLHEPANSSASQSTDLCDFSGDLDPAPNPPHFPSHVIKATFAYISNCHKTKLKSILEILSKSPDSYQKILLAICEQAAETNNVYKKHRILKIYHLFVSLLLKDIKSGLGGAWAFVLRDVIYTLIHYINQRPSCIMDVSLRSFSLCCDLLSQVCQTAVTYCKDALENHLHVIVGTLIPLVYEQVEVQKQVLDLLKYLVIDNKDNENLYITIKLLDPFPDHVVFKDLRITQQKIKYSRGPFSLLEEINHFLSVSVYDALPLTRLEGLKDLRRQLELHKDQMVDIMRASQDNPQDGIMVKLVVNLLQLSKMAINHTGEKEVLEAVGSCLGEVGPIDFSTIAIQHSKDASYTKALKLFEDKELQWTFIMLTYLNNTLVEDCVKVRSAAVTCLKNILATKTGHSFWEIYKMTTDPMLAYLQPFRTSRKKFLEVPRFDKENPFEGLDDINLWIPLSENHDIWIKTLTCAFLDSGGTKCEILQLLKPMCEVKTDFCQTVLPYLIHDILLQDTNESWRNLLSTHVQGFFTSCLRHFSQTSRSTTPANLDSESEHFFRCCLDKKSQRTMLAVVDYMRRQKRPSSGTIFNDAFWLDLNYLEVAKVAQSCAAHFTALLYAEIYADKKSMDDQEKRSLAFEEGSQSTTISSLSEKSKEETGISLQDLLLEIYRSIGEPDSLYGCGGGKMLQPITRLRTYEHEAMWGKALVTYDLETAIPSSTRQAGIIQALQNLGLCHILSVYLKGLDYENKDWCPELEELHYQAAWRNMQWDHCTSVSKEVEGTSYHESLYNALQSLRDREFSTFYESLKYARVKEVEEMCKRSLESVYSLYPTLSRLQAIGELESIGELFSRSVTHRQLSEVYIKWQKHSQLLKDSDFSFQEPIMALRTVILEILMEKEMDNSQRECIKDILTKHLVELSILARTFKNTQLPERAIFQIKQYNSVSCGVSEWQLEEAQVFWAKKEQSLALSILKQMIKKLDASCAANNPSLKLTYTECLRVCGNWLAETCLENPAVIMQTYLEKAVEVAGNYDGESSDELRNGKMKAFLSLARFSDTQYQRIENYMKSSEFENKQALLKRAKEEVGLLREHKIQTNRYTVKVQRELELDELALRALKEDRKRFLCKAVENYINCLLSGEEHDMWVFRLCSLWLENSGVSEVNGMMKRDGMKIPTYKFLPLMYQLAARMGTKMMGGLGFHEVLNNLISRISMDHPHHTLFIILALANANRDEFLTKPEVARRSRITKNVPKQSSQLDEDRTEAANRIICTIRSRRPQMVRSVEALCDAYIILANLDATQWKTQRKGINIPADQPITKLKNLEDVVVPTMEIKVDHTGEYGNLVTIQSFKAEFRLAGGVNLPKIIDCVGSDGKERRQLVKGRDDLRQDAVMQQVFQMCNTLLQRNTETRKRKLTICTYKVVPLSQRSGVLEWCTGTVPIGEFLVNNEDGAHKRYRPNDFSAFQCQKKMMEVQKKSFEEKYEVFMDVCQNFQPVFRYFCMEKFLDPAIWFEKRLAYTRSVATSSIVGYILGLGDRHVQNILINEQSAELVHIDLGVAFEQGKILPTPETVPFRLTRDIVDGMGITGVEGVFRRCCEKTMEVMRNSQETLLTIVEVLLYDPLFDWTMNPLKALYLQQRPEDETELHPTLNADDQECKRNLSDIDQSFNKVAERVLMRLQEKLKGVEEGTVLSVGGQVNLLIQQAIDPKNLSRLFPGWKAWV
Structure (SMILES),IC50 [1],inhibition at 0.01 µM (ATM enzyme (human)),inhibition at 0.1 µM (ATM enzyme (human)),inhibition at 1 µM (ATM enzyme (human)),IC50 [2]
"CNC1CCN(c2ccc(-c3ccc4ncc5nnc(CN6CCOCC6)n5c4n3)cc2)CC1 [Example 77, N-methyl-1-(4-(9-(morpholinomethyl)pyrido[3,2-e][1,2,4]triazolo[4,3-a]pyrazin-2-yl)phenyl)piperidin-4-amine]",1010 nM,–,–,97%,937 nM
"CN(C)CCCOc1ccc(-c2ccc3ncc4nnc(-c5c[nH]cn5)n4c3c2)cc1 [Example 29, N,N-dimethyl-3-(4-(1-(1H-imidazol-4-yl)-[1,2,4]triazolo[4,3-a]quinoxalin-8-yl)phenoxy)propan-1-amine]",1210 nM,34%,81%,97%,860 nM
"c1ccc(-c2cc3c(cn2)ncc2nnc(C4CCOCC4)n23)cc1 [Example 67, 8-phenyl-1-(tetrahydro-2H-pyran-4-yl)pyrido[3,4-e][1,2,4]triazolo[4,3-a]pyrazine]",> 100000 nM,–,–,19%,> 100000 nM
"CN(C)CCCOc1ccc(-c2ccc3ncc4nnc(CN5CCOCC5)n4c3c2)cc1 [Example 27, N,N-dimethyl-3-(4-(1-(morpholinomethyl)-[1,2,4]triazolo[4,3-a]quinoxalin-8-yl)phenoxy)propan-1-amine]",470 nM,43%,84%,99%,452 nM

# Stronger by IC50 [1], values ahead:
IC50 [1],inhibition at 0.01 µM (ATM enzyme (human)),inhibition at 0.1 µM (ATM enzyme (human)),inhibition at 1 µM (ATM enzyme (human)),IC50 [2],Structure (SMILES)
334 nM,–,–,100%,372 nM,"CN(C)CCCOc1ccc(-c2ccc3ncc4nnc(N5CCOCC5)n4c3c2)cc1 [Example 21, N,N-dimethyl-3-(4-(1-morpholino-[1,2,4]triazolo[4,3-a]quinoxalin-8-yl)phenoxy)propan-1-amine]"
191 nM,–,–,100%,210 nM,"NC1CCN(c2ccc(-c3ccc4ncc5nnc(C6CCOCC6)n5c4n3)cc2)CC1 [Example 73, 1-(4-(9-(tetrahydro-2H-pyran-4-yl)pyrido[3,2-e][1,2,4]triazolo[4,3-a]pyrazin-2-yl)phenyl)piperidin-4-amine]"
170 nM,67%,94%,100%,106 nM,"CN(C)C1CCN(c2ccc(-c3ccc4ncc5nnc(C6CCOCC6)n5c4c3)cc2Cl)CC1 [Example 45, 1-(2-chloro-4-(1-(tetrahydro-2H-pyran-4-yl)-[1,2,4]triazolo[4,3-a]quinoxalin-8-yl)phenyl)-N,N-dimethylpiperidin-4-amine]"
